Viscosity and mass density data for four compounds are collected here from the NIST ThermoML archive (doi:10.1016/j.jct.2014.04.014).

Numbers after ± are expanded uncertainties.

This series can be described thus: wn = mass fraction of the nth substance listed. The settings on record: 273.15 K, 102.5 kPa, Liquid; for viscosity: Capillary tube (Ostwald / Ubbelohde) method; for mass density: Pycnometric method.

Usually viscosity stands for the resistance of a fluid to flow. Broadly, the mass density is mass per unit of volume. Take `O=[PH2][O-].[Na+]` [sodium phosphinate] + O: where the note is “w1 = 0.478”, the viscosity amounted to 73.88 ± 1.9 mPa·s and the mass density was determined as 1384 ± 1 kg/m3.

For `[Cl-].[Na+]` [sodium chloride] + O, under “w1 = 0.2625”, the viscosity is on record as 2.16 ± 0.05 mPa·s and the mass density is given as 1201 ± 1 kg/m3.

In the case of `O=[PH2][O-].O=[PH2][O-].[Zn+2]` [zinc(II) phosphinate] + O, where the note is “w1 = 0.1379”, the viscosity is reported as 2.95 ± 0.06 mPa·s and the mass density was found to be 1069 ± 1 kg/m3.

In the case of `[Cl-].[Cl-].[Zn+2]` [zinc chloride] + O, where the note is “w1 = 0.666”, the viscosity is 135.4 ± 4.5 mPa·s and the mass density is on record as 1943 ± 3 kg/m3.
